From patent US20060111443A1, “Preventive therapeutic composition for muscular fatigue, pulled muscle and disease attributed thereto” (priority 2002, published 2006)

What was measured:
[1] = system: healthy subjects; test: Analyzing test of blood components (myoglobin, lactic acid, CPK) after exercise stress; type: in vivo, human; conditions: value just after exercise stress = 100%
Experimental: To 20 healthy subjects (14 males and 6 females), was given an exercise stress of 15 km running within a limited time of 2 hours. The 20 subjects who run the whole distance within the limited time were divided into 2 groups by the arrival order, that is, one group consisting of 10 subjects of odd-numbered order of arrival (8 male subjects and 2 female subjects) and the other group consisting of 10 subjects of even-numbered order of arrival (6 male subjects and 4 female subjects). To the group of odd numbers was administered tranilast (hereinafter referred to as Medicine administration group) and to the group of even numbers was not administered (hereinafter referred to as Control group). […]
In each group, bloods were collected at a time of just before, just after, 3 days and 7 days after the exercise stress. And, blood components considered relevant to muscular fatigue and muscular damage (myoglobin, lactic acid and CPK) were analyzed, and relative degrees of changes of blood concentrations which are converted into relative values to the concentrations just after the exercise stress set as 100% were calculated.

[2] = repeated administration of 300 mg a day; cited from earlier work

## COc1ccc(/C=C/C(=O)Nc2ccccc2C(=O)O)cc1OC [tranilast, N-(3,4-dimethoxycinnnamoyl)anthranilic acid]
[1]; 3 days after exercise stress, control 160% or more
  relative degree of change of blood concentration of CPK: about 110%
[1]; 7 days after exercise stress, control about 90%
  relative degree of change of blood concentration of CPK: about 60%
[2]
  time at which tranilast concentration in blood reached the maximum: 2 days
